Laboratory results taken from the NIST ThermoML archive (doi:10.1016/j.jct.2014.02.016).

Tests used:
[1] = heat capacity at constant pressure per volume; xn = mol fraction of the nth substance listed; conditions: 100 kPa, Liquid, DSC Calorimetry, x1 = 0.284
[2] = refractive index (other wavelength) (dimensionless); xn = mol fraction of the nth substance listed; conditions: 100 kPa, Liquid, Wavelength=632.8 nm, Angle minimization by sell rotation

CCCCCCCCCCC [undecane] + COC(=O)OC
[1]
Conditions | heat capacity [J/K/m3]
293.3 K | 2050000
293.4 K | 2009000
293.5 K | 1982000
293.6 K | 1953000
293.8 K | 1939000
294 K | 1925000
294.5 K | 1897000
296 K | 1878000
297 K | 1848000
298 K | 1846000
299 K | 1832000
300 K | 1824000
301 K | 1822000
302 K | 1818000
303 K | 1818000
304 K | 1814000
305 K | 1810000
306 K | 1806000
307 K | 1805000
308 K | 1803000
309 K | 1801000
310 K | 1800000
311 K | 1797000
312 K | 1796000
313 K | 1795000
314 K | 1793000
315 K | 1792000
316 K | 1790000
317 K | 1789000
318 K | 1788000
319 K | 1787000
320.01 K | 1787000
321 K | 1786000
322 K | 1785000
323 K | 1784000
324.01 K | 1783000
325 K | 1782000
326 K | 1782000
327 K | 1780000
328.01 K | 1780000
329 K | 1780000
330 K | 1779000
331 K | 1778000
332 K | 1778000
333 K | 1777000

[2]
Conditions | refractive index
283.01 K, x1 = 0.087 | 1.3791
283.01 K, x1 = 0.62 | 1.4074
284.23 K, x1 = 0.094 | 1.3791
284.23 K, x1 = 0.602 | 1.4062
285.47 K, x1 = 0.102 | 1.3791
285.47 K, x1 = 0.58 | 1.4048
286.63 K, x1 = 0.11 | 1.3791
286.63 K, x1 = 0.56 | 1.4035
287.73 K, x1 = 0.118 | 1.3792
287.73 K, x1 = 0.539 | 1.4022
288.79 K, x1 = 0.129 | 1.3795
288.79 K, x1 = 0.515 | 1.4008
289.51 K, x1 = 0.137 | 1.3797
289.51 K, x1 = 0.496 | 1.3997
290.19 K, x1 = 0.147 | 1.3801
290.19 K, x1 = 0.475 | 1.3985
290.77 K, x1 = 0.157 | 1.3805
290.77 K, x1 = 0.46 | 1.3976
291.19 K, x1 = 0.165 | 1.3809
291.19 K, x1 = 0.442 | 1.3966
291.49 K, x1 = 0.173 | 1.3813
291.49 K, x1 = 0.431 | 1.396
291.71 K, x1 = 0.179 | 1.3816
291.71 K, x1 = 0.418 | 1.3953
291.9 K, x1 = 0.186 | 1.382
291.9 K, x1 = 0.409 | 1.3948
292.05 K, x1 = 0.193 | 1.3824
292.05 K, x1 = 0.398 | 1.3942
292.17 K, x1 = 0.198 | 1.3827
292.17 K, x1 = 0.391 | 1.3938
292.25 K, x1 = 0.202 | 1.3829
292.25 K, x1 = 0.383 | 1.3934
292.33 K, x1 = 0.207 | 1.3832
292.33 K, x1 = 0.376 | 1.393
292.39 K, x1 = 0.212 | 1.3835
292.39 K, x1 = 0.371 | 1.3927
292.44 K, x1 = 0.217 | 1.3838
292.44 K, x1 = 0.365 | 1.3924
292.49 K, x1 = 0.22 | 1.384
292.49 K, x1 = 0.36 | 1.3921
292.52 K, x1 = 0.225 | 1.3843
292.52 K, x1 = 0.352 | 1.3917
292.56 K, x1 = 0.228 | 1.3845
292.56 K, x1 = 0.349 | 1.3915
292.59 K, x1 = 0.235 | 1.3849
292.59 K, x1 = 0.341 | 1.3911
292.62 K, x1 = 0.238 | 1.3851
292.62 K, x1 = 0.336 | 1.3908
292.64 K, x1 = 0.243 | 1.3854
292.64 K, x1 = 0.331 | 1.3905
292.65 K, x1 = 0.246 | 1.3856
292.65 K, x1 = 0.327 | 1.3903
292.66 K, x1 = 0.251 | 1.3859
292.66 K, x1 = 0.322 | 1.39
292.67 K, x1 = 0.255 | 1.3861
292.67 K, x1 = 0.258 | 1.3863
292.67 K, x1 = 0.314 | 1.3896
292.67 K, x1 = 0.318 | 1.3898
292.68 K, x1 = 0.261 | 1.3865
292.68 K, x1 = 0.263 | 1.3866
292.68 K, x1 = 0.266 | 1.3868
292.68 K, x1 = 0.304 | 1.389
292.68 K, x1 = 0.307 | 1.3892
292.68 K, x1 = 0.311 | 1.3894
303.3 K, x1 = 0.102 | 1.3708
303.3 K, x1 = 0.2 | 1.3776
303.3 K, x1 = 0.299 | 1.3835
303.3 K, x1 = 0.388 | 1.3891
303.3 K, x1 = 0.5 | 1.3932
303.3 K, x1 = 0.586 | 1.3967
303.3 K, x1 = 0.701 | 1.4014
303.3 K, x1 = 0.793 | 1.4041
303.3 K, x1 = 0.905 | 1.4085
